Source: PMC8746798, “Evaluation of 2-Thioxoimadazolidin-4-one Derivatives as Potent Anti-Cancer Agents through Apoptosis Induction and Antioxidant Activation: In Vitro and In Vivo Approaches” (Molecules, 2021)

Tests used:
Format in all cases: cell-based, human
HepG2 cells = test: Annexin V-FITC/PI apoptosis/necrosis flow cytometry
From the text: Apoptotic cells were quantified using double staining with annexin V and PI on flow cytometry. […] The detailed methodology of flow cytometric analysis (annexin V/PI differential apoptosis/necrosis, DNA content–flow cytometry aided cell cycle) is provided in the Supplementary Materials.
Supplementary materials for detailed methodology
Evaluation of 2-thioxoimadazolidin-4-one Derivatives as Potent
Anti-cancer Agents Through Apoptosis Induction and Antioxi-dant Activation: In vitro and In vivo Approaches
Mohamed S. Nafie 1,*, Ahmed I. Khodair 2,*, Hebat Allah Y. Hassan 3, Noha M. Abd El-Fadeal 4, Hanin A. Bogari 5 , Sameh S. Elhady 6 and Safwat A. Ahmed 3,7,* […]
Apoptosis and necrosis cell populations are determined using Annexin V-FITC apop-tosis detection kit (Abcam Inc., Cambridge Science Park, Cambridge, UK) coupled with 2 fluorescent channels flowcytometry. […]
Then, cells are incubated in dark with 0.5 ml of Annexin V-FITC/PI solution for 30 min in dark at room temperature according to manufacturer protocol. After staining, cells are injected via ACEA Novocyte™ flowcytometer (ACEA Biosciences Inc., San Diego, CA, USA) and analyzed for FITC and PI fluorescent signals using FL1 and FL2 signal detector, respectively (λex/em 488/530 nm for FITC and λex/em 535/617 nm for PI). […]

[1] = system: P53, PUMA, Caspase 3, 8, 9, Bcl-2, PI3K, AKT genes in HepG2 cells; test: Gene expression (RT-PCR) of apoptosis-related genes; settings: HepG2, IC50 concentration, 48 h, control = 1
Method: The target genes of P53, PUMA, Caspases 3, 8, and 9, Bcl-2, PI3K, and AKT were chosen according to the interactive functional association network of the tested protein set using String bioinformatics database for analysis as shown in Supplementary Figure S1. HepG2 cells were treated for 48 h at 37 °C with the IC50 value of the compound 4 and followed by real-time PCR analysis for control and treated cells of the following genes, P53, PUMA, BCL2, CASP3, CASP8, CASP9, PI3k, and AKT, using the specific primers mentioned in Supplementary Table S3 compared to the control cells. Relative gene expression was calculated utilizing the ΔΔCT equation with normalization to the housekeeping beta-actin gene. Results were shown as a fold change in the mentioned gene expression in the treated versus control cells.
HepG2 cells were treated for 48 h at 37 °C with the IC50 value of the compound 4 and were collected for real-time PCR analysis with the perfect primer pairs (Supplementary, Table 1) of the following eight genes (P53, PUMA, BCL2, CASP3, CASP8, CASP9, PI3k and AKT) compared to the control cells, and for analysis first total RNA was extracted using RNeasy Mini Kit (Qiagen) following the manufacturer protocol of the kits than RNA was assessed for both the quality and quantity of RNA using NanoDrop ND-1000 spec-trophotometer at the absorbance ratio 260/280 nm [NanoDrop Tech., Inc. DE, USA]. Also, Whole RNA quality was examined by 1% agarose gel electrophoresis and afterward cDNA was obtained from one μg RNA using I-Script cDNA synthesis kit (BioRad). qRT-PCR were executed utilizing 10 ng of cDNA and Applied Biosystems Sybr Green master […]
conditions were 5 min [95 ◦C], followed by 45 cycles for 15 s [95 ◦C], for 60 s [58, 60, 62 ◦C] and for 1 min [72 ◦C] using applied Biosystems Step-One qRT-PCR (USA). Relative genes expression was finally calculated utilizing the ΔΔCT equation with normalization to that of the housekeeping beta-actin gene. Results were shown as fold change in gene expres-sion in the treated cells versus that of the control. […]

[2] = system: Caspase 3 and 9, Bcl-2, PI3K, AKT proteins in HepG2 cells; test: Western blot of apoptosis-related proteins; settings: treated HepG2 vs untreated control, normalized to β-actin
Method: Protein expression analysis for phosphorylated/total phosphatidylinositol 3-kinase (PI3K), protein kinase B (Akt), Caspase 3 and 9 proteins, and Bcl-2 was performed using the Western blotting technique to confirm the mechanism of apoptosis induction by compound 4 in HepG2 cells compared to control. Detailed methodology is supported in Supplementary Materials.

O=C1NC(=S)N(c2ccc(O)cc2)/C1=C/c1cccs1 [Compound 4, (E)-1-(4-Hydroxyphenyl)-5-(thiophen-2-ylmethylene)-2-thioxoimidazolidin-4-one]
necrotic cells (Q1, AV−/PI+) (HepG2 cells; HepG2, IC50 = 0.017 μM, 48 h, control 1.05%): 6.08% | apoptosis induction versus control (HepG2 cells; HepG2, 11.42% compared to 0.59% in control): 19.35 fold | AKT gene expression, fold change ([1]; reduced): 0.38 fold | BCL-2 gene expression, fold change ([1]; reduced): 0.25 fold | PI3K gene expression, fold change ([1]; reduced): 0.497 fold | Caspase 3 gene expression, fold change ([1]; upregulation): 10.71 fold | Caspase 8 gene expression, fold change ([1]; upregulation): 1.98 fold | Caspase 9 gene expression, fold change ([1]; upregulation): 7.14 fold | P53 gene expression, fold change ([1]; upregulation): 7.61 fold | PUMA gene expression, fold change ([1]; upregulation): 2.31 fold | AKT protein level [2]: decreased | BCL2 protein level [2]: decreased | Caspase 3 protein level [2]: upregulated | Caspase 9 protein level [2]: upregulated | PI3K protein level [2]: decreased
